Data on 9 compounds can be found in patent US20170049676A1, “TOPICAL COMPOSITION” (Conopco, Inc., d/b/a UNILEVER, priority 2014, published 2017).

In data set [1] the test system is heme oxygenase 1 (HO-1). The data set can be described thus: Heme oxygenase 1 (HO-1) ELISA on lysates of fibroblasts treated 24 hours, normalised to total protein (Example 1). Format: cell-based, human. The settings on record: 8.4 mM controls. The protocol: Primary human neonatal dermal fibroblast cells were cultured and passaged in Dulbecco's Modified Eagle Medium (DMEM) supplemented with 10% foetal bovine serum (FBS), known as complete medium. Cells were routinely plated out in 24-well tissue culture plates at a seeding density of 40,000 cells per well in 1 ml complete medium, and incubated at 37° C. in 5% CO2 for 48 hours before addition of the test solutions.
After removal and storage of the tissue culture supernatant, the cell monolayer was washed with 1 ml of Dulbecco's Phosphate Buffered Saline (DPBS) per well and lysed with 200 μl cell lysis buffer per well. The cell lysis buffer consisted of 0.5% w/w Triton™ X100 (octyl phenol ethoxylate) and 1 mM ethylenediaminetetraacetic acid (EDTA) in phosphate buffer solution (PBS) at pH 7.2. Protease inhibitor tablets were added to the lysis buffer immediately prior to use, at the manufacturer's recommended level. The plates received one freeze thaw cycle to ensure complete cell lysis. The lysates were subsequently clarified by scraping the samples off the plates with a pipette tip and passing them through an Acrowell™ filter plate (Pall Corporation) using an Acroprep™ vacuum manifold (Pall Corporation) into a 96 well microwell plate. The clarified lysates were stored at −20° C. until needed.
A set of eight standard solutions ranging from 0 to 800 μg/ml protein was prepared from the supplied 2 mg/ml bovine serum albumin (BSA) stock solution. 10 μl of standard or cell lysate was added to duplicate wells of a flat-bottomed, 96-well microtitre plate. The reagent solution was prepared according to the kit instructions from 50 parts reagent A and 1 part reagent B. 200 μl of the final reagent was added to each well of the microtitre plate. The plate was mixed, covered and incubated at 37° C. for 30 minutes and absorbance read at 540 nm. A protein standard curve was constructed and used to determine the protein concentration of each individual cell lysate.
The heme oxygenase 1 (HO-1) protein concentration of each cell lysate was assayed using the Human Total HO-1/HMOX1 DuoSet IC assay (R&D Systems Europe Ltd) according to the manufacturer's instructions. This DuoSet IC ELISA ([…]) contains the basic components required for the development of sandwich ELISAs to measure HO-1/HMOX1 (heme oxygenase (decycling) 1 which is a human gene that encodes for the enzyme heme oxygenase 1)/HSP32 (heat shock protein 32 (Hsp32), also known as heme oxygenase 1 (HO-1)) in cell lysates. An immobilized capture antibody specific for HO-1/HMOX1/HSP32 binds both phosphorylated and unphosphorylated HO-1/HMOX1/HSP32. […]
Background: An ELISA detects its analyte on a solid surface through an enzyme-linked reagent.

The subject of data set [2] is heme oxygenase 1 (HO-1). Put plainly: Heme oxygenase 1 (HO-1) ELISA on lysates of adult fibroblasts treated with isothiocyanates (Example 2). The following applies: primary human adult dermal fibroblast cells; for HO-1 (pg HO-1 per μg protein): 24 hours, vehicle control 179 ± 28; for production of HO-1 (in words): either at 1 or 2 μM. Format: cell-based. The protocol: Primary human adult dermal fibroblast cells were routinely cultured and passaged in Dulbecco's Modified Eagle Medium (DMEM) supplemented with 10% foetal bovine serum (FBS), known as complete medium. Cells were plated out in 12-well tissue culture plates at a seeding density of 20,000 cells per well in 1 ml of low serum medium (DMEM supplemented with 1% FBS) and incubated at 37° C. in 5% CO2 for 96-120 hours before addition of the test samples.
The isothiocynates (all from Sigma-Aldrich Company) sulforaphane, allyl isothiocyanate (AITC), alpha-naphthyl isothiocyanate (NITC), phenethyl isothiocyanate (PEITC) and benzyl isothiocyanate (BITC) were prepared in dimethyl sulphoxide (DMSO) and diluted in DMEM supplemented with 1% FBS to a final concentration of 1 uM and 2 uM. Dermal fibroblasts were treated with 1 ml/well of the test samples for a period of 24 hours. A solvent vehicle was included in each experimental plate.
After 24 hours the cell monolayer was washed with 1 ml of Dulbecco's Phosphate Buffered Saline (DPBS) per well and lysed with 400 μl of RIPA cell lysis buffer per well. The RIPA cell lysis buffer consisted of 150 mM NaCl, 1% v/v Nonidet-P40 (Igepal CA603 from Fluke 56741), 0.1% w/v sodium dodecyl sulphate (SDS) and 0.1% w/v sodium deoxycholate in 50 mM Tris-HCL buffer at pH 7.6. Protease inhibitor tablets were added to the lysis buffer immediately prior to use, at the manufacturer's recommended level. The plates received one freeze thaw cycle to ensure complete cell lysis. The lysates were subsequently clarified by scraping the samples off the plates with a pipette tip, centrifuging at 13,000 rpm for 10 minutes and transferring the supernatant into a 96 well microtitre plate. The clarified lysates were stored at −20° C. until needed.
The heme oxygenase 1 (HO-1) protein concentration of each cell lysate was assayed using the Human HO-1 ELISA Kit from Assay Designs (ADI-EKS-800, Enzo Life Sciences, UK) according to the manufacturer's instructions. Briefly, […] were diluted 1 in 10 in sample diluent, and 100 μl transferred to the pre-coated anti-HO-1 immunoassay plate. A 7-point recombinant HO-1 standard curve, ranging from 25 to 0.39 ng/ml, was also prepared in sample diluent. The immunoassay plate was incubated at room temperature for 30 minutes, washed six times with Wash Buffer, and incubated for a further 60 minutes at room temperature with 100 μl/well of anti-HO-1 antibody solution. The plate was washed as above and incubated for 30 minutes at room temperature with 100 μl/well of horseradish peroxidase (HRP)-conjugate solution. Again the plate was washed as above and 100 μl/well of 3,3′,5,5′-tetramethylbenzidine (TMB)-substrate added to each well for 15 minutes at room temperature in the dark. Following the addition of 100 μl/l well of stop solution, the absorbance was read at 450 nm on a microplate reader (Dynex MRX) and the unknown lysate levels of HO-1 were extrapolated from the standard curve. […]

The test system of data set [3] is primary human neonatal dermal fibroblast cells.
Data set [4] concerns myrosinase from Raphanus sativus var. longipinnatus (daikon). The following applies: cited from earlier work; for reaction velocity, % of that with 500 μM ascorbic acid: 150 μM sinigrin; for effect on enzymic activity (in words): sinigrin as substrate, pH 6.0.
For data set [5], the system named is rat basophilic leukemia (RBL-2H3) cells. The following applies: cited from earlier work.
The subject of data set [6] is primary human neonatal dermal fibroblast cells. The data set can be described thus: Cytotoxicity assay, ApoTox-Glo Triplex Assay (dead-cell protease, bis-AAF-R110).
Data set [7] deals with enzyme from Salix alba (white willow). The settings on record: cited from earlier work.
The subject of data set [8] is enzymes from several other Brassica species. The settings on record: cited from earlier work.
In data set [9] the test system is myrosinase in partially purified extracts of six crucifers. The following applies: cited from earlier work.

Where two headings read alike, the source gives them in different places.

Regarding `C=CCN=C=S` [Allyl isocyanate control, Allyl isothiocyanate], the “Normalised HO-1 (vehicle = 100)” value in data set [1] (dilution 1/50) was determined as 335.46 ± 54.80; in [1] (dilution 1/100), 383.74 ± 30.02. For the same compound, the “HO-1 (pg HO-1 per μg protein)” value was 207 ± 13 pg HO-1 per μg protein in data set [2] (1 μM) and 243 ± 26 pg HO-1 per μg protein in [2] (2 μM). The “production of HO-1 (in words)” value in data set [2] is “increase the production of HO-1”. Also, the “cytotoxicity to the fibroblast cells (in words)” value in [3] is given as “Neither myrosinase, nor the glucosinolate sinigrin, nor allyl isothiocyanate induce cytotoxicity on their own”. Moreover, the “Cytotoxicity (RFU × 1000)” value in [3] (human, 24 h, 0.168 mM) was 66.71 ± 4.63 RFU × 1000. Moreover, the “inhibition of activity (in words)” value in data set [4] (concentrations as high as 1 mM) is reported as “did not significantly inhibit activity”.

For `S=C=Nc1cccc2ccccc12` [Alpha-naphthyl isothiocyanate (NITC), Alpha-naphthyl isothiocyanate], the “HO-1 (pg HO-1 per μg protein)” value is recorded as 195 ± 25 pg HO-1 per μg protein in [2] (1 μM) and 191 ± 31 pg HO-1 per μg protein in data set [2] (2 μM). For the same compound, in data set [2], the “production of HO-1 (in words)” value is reported as “increase the production of HO-1”.

Regarding `S=C=NCc1ccccc1` [Benzyl isothiocyanate (BITC), Benzyl isothiocyanate], the results for the “HO-1 (pg HO-1 per μg protein)” value in [2] (1 μM) and in [2] (2 μM) were 381 ± 50 pg HO-1 per μg protein and 730 ± 170 pg HO-1 per μg protein, respectively. The “production of HO-1 (in words)” value in data set [2] is reported as “increase the production of HO-1”.

Consider `S=C=NCCc1ccccc1` [Phenethyl isothiocyanate (PEITC), Phenethyl isothiocyanate], for which the “HO-1 (pg HO-1 per μg protein)” value in data set [2] (1 μM) was 429 ± 49 pg HO-1 per μg protein; in [2] (2 μM) it was 668 ± 101 pg HO-1 per μg protein. Besides, the “production of HO-1 (in words)” value in data set [2] is given as “increase the production of HO-1”.

Turning to `O=c1c(O)c(-c2ccc(O)c(O)c2)oc2cc(O)cc(O)c12` [Quercetin], the “Nrf2 translocation (in words)” value in [5] (RBL-2H3 cells) is listed as “translocate Nrf2 from cytoplasm into nucleus”. Moreover, in data set [5], the “mast cell degranulation and release of histamine (in words)” value was “inhibit mast cell degranulation and subsequent release of histamine”.

On to `C=CCC(=NOS(=O)(=O)O)S[C@@H]1O[C@H](CO)[C@@H](O)[C@H](O)[C@H]1O` [Sinigrin control, sinigrin (2-propenyl or allyl glucosinolate)], for which the “Normalised HO-1 (vehicle = 100)” value in [1] (dilution 1/50) is given as 168.32 ± 73.93; in [1] (dilution 1/100) it was 49.08 ± 12.98. In addition, in data set [6] (8.4 mM controls in complete medium, dilution 1/50, second series (untreated cells 18.63)), the “Cytotoxicity (RFU × 1000)” value turned out to be 80.94 ± 39.75 RFU × 1000. Moreover, in [6] (extract without heat treatment, single components on their own at comparable levels), the “cytotoxicity to the fibroblast cells (in words)” value was “Neither myrosinase, nor the glucosinolate sinigrin, nor allyl isothiocyanate induce cytotoxicity on their own”.

With `C[S+]([O-])CCCCN=C=S` (stereo not drawn) [Sulforaphane], the “HO-1 (pg HO-1 per μg protein)” value turned out to be 280 ± 15 pg HO-1 per μg protein in data set [2] (1 μM) and 309 ± 45 pg HO-1 per μg protein in [2] (2 μM). For the same compound, the “production of HO-1 (in words)” value in [2] is listed as “increase the production of HO-1”.

Consider `O=C1O[C@H]([C@@H](O)CO)C(O)=C1O` [ascorbic acid], for which the “reaction velocity, % of that with 500 μM ascorbic acid” value in data set [4] (0.75 mM ascorbic acid) is given as 90%; in data set [4] (1.0 mM ascorbic acid), 73%. Besides, in data set [4], the “effect on enzymic activity (in words)” value is “enzymic activity was enhanced greatly”. Besides, the activation by ascorbate in [7] is 2-3 fold; in [8], 8-12 fold. Moreover, the “ascorbate concentrations for maximal activation of myrosinase” value in data set [9] was 0.7 to 5.0 mM.

As to `O=S(=O)(O)O` [sulphate], the “effect on enzymic activity (in words)” value in [4] is “inhibited activity competitively”.
